Test results: patent US10251395B2, “Substituted furano-/thienocycloalkylamino-2-pyrimidine derivatives and use thereof for controlling undesired plant growth” (Bayer CropScience Aktiengesellschaft, priority 2015, dated 2019)

Key:
Abutilon theophrasti [1] = experiment: Pre-emergence herbicidal effect; assay type: in vivo; conditions: scored visually after 3 weeks
Method in brief: (§1)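 Using soil-surface application before emergence, the compound was delivered in a water volume equating to 600 to 800 L/ha. Plants grew in a greenhouse for 3 weeks; activity was then rated visually in percent against untreated plants, with 100% for plants killed.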

Amaranthus retroflexus [2] = experiment: Pre-emergence herbicidal effect; assay type: in vivo; conditions: scored visually after 3 weeks
Method in brief: as §1

Echinochloa crus-galli [3] = experiment: Pre-emergence herbicidal effect; assay type: in vivo; conditions: scored visually after 3 weeks
Method in brief: as §1

Matricaria inodora [4] = experiment: Pre-emergence herbicidal effect; assay type: in vivo; conditions: scored visually after 3 weeks
Method in brief: as §1

Polygonum convolvulus [5] = experiment: Pre-emergence herbicidal effect; assay type: in vivo; conditions: scored visually after 3 weeks
Method in brief: as §1

Setaria viridis [6] = experiment: Pre-emergence herbicidal effect; assay type: in vivo; conditions: scored visually after 3 weeks
Method in brief: as §1

Stellaria media [7] = experiment: Pre-emergence herbicidal effect; assay type: in vivo; conditions: scored visually after 3 weeks
Method in brief: as §1

Veronica persica [8] = experiment: Pre-emergence herbicidal effect; assay type: in vivo; conditions: scored visually after 3 weeks
Method in brief: as §1

Viola tricolor [9] = experiment: Pre-emergence herbicidal effect; assay type: in vivo; conditions: scored visually after 3 weeks
Method in brief: as §1

Abutilon theophrasti [10] = experiment: Post-emergence herbicidal effect; assay type: in vivo; conditions: assessed visually after about 3 weeks vs untreated controls
Method in brief: (§2)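 Greenhouse post-emergence spray: one-leaf seedlings, sandy loam, aqueous WP/EC formulation with 0.2% wetting agent at 600–800 L/ha. Visual assessment after ~3 weeks, as % activity relative to untreated controls.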

Alopecurus myosuroides [11] = experiment: Post-emergence herbicidal effect; assay type: in vivo; conditions: assessed visually after about 3 weeks vs untreated controls
Method in brief: as §2

Amaranthus retroflexus [12] = experiment: Post-emergence herbicidal effect; assay type: in vivo; conditions: assessed visually after about 3 weeks vs untreated controls
Method in brief: as §2

Echinochloa crus-galli [13] = experiment: Post-emergence herbicidal effect; assay type: in vivo; conditions: assessed visually after about 3 weeks vs untreated controls
Method in brief: as §2

Lolium multiflorum [14] = experiment: Post-emergence herbicidal effect; assay type: in vivo; conditions: assessed visually after about 3 weeks vs untreated controls
Method in brief: as §2

Matricaria inodora [15] = experiment: Post-emergence herbicidal effect; assay type: in vivo; conditions: 320 g/ha, assessed visually after about 3 weeks vs untreated controls
Method in brief: as §2

Stellaria media [16] = experiment: Post-emergence herbicidal effect; assay type: in vivo; conditions: assessed visually after about 3 weeks vs untreated controls
Method in brief: as §2

Veronica persica [17] = experiment: Post-emergence herbicidal effect; assay type: in vivo; conditions: assessed visually after about 3 weeks vs untreated controls
Method in brief: as §2

Viola tricolor [18] = experiment: Post-emergence herbicidal effect; assay type: in vivo; conditions: assessed visually after about 3 weeks vs untreated controls
Method in brief: as §2

Alopecurus myosuroides [19] = experiment: Pre-emergence herbicidal effect; assay type: in vivo; conditions: scored visually after 3 weeks
Method in brief: as §1

Lolium multiflorum [20] = experiment: Pre-emergence herbicidal effect; assay type: in vivo; conditions: Dosage 320 g/ha, scored visually after 3 weeks
Method in brief: as §1

Avena fatua = experiment: Pre-emergence herbicidal effect; assay type: in vivo; conditions: Dosage 320 g/ha, scored visually after 3 weeks
Method in brief: as §1

Ipomoea purpurea = experiment: Post-emergence herbicidal effect; assay type: in vivo; conditions: assessed visually after about 3 weeks vs untreated controls
Method in brief: as §2

Polygonum convolvulus [21] = experiment: Post-emergence herbicidal effect; assay type: in vivo; conditions: assessed visually after about 3 weeks vs untreated controls
Method in brief: as §2

Setaria viridis [22] = experiment: Post-emergence herbicidal effect; assay type: in vivo; conditions: assessed visually after about 3 weeks vs untreated controls
Method in brief: as §2

logP (HCOOH) = assay type: physicochemical; conditions: HCOOH
Description: Table 2 (physicochemical characterization of selected synthesis examples)

Cc1cc2c(s1)CCCC2Nc1ncc2c(n1)CCCC2=O (racemic) [compound 9]
ABUTH pre-emergence efficacy (herbicidal activity) (Abutilon theophrasti [1]; Dosage 80 g/ha): 100% | ABUTH pre-emergence efficacy (herbicidal activity) (Abutilon theophrasti [1]; Dosage 320 g/ha): 100% | AMARE pre-emergence efficacy (herbicidal activity) (Amaranthus retroflexus [2]; Dosage 80 g/ha): 100% | AMARE pre-emergence efficacy (herbicidal activity) (Amaranthus retroflexus [2]; Dosage 320 g/ha): 100% | ECHCG pre-emergence efficacy (herbicidal activity) (Echinochloa crus-galli [3]; Dosage 80 g/ha): 100% | ECHCG pre-emergence efficacy (herbicidal activity) (Echinochloa crus-galli [3]; Dosage 320 g/ha): 100% | MATIN pre-emergence efficacy (herbicidal activity) (Matricaria inodora [4]; Dosage 80 g/ha): 100% | MATIN pre-emergence efficacy (herbicidal activity) (Matricaria inodora [4]; Dosage 320 g/ha): 100% | POLCO pre-emergence efficacy (herbicidal activity) (Polygonum convolvulus [5]; Dosage 80 g/ha): 100% | POLCO pre-emergence efficacy (herbicidal activity) (Polygonum convolvulus [5]; Dosage 320 g/ha): 100% | SETVI pre-emergence efficacy (herbicidal activity) (Setaria viridis [6]; Dosage 80 g/ha): 80% | SETVI pre-emergence efficacy (herbicidal activity) (Setaria viridis [6]; Dosage 320 g/ha): 100% | STEME pre-emergence efficacy (herbicidal activity) (Stellaria media [7]; Dosage 80 g/ha): 100% | STEME pre-emergence efficacy (herbicidal activity) (Stellaria media [7]; Dosage 320 g/ha): 100% | VERPE pre-emergence efficacy (herbicidal activity) (Veronica persica [8]; Dosage 80 g/ha): 100% | VERPE pre-emergence efficacy (herbicidal activity) (Veronica persica [8]; Dosage 320 g/ha): 100% | VIOTR pre-emergence efficacy (herbicidal activity) (Viola tricolor [9]; Dosage 80 g/ha): 90% | VIOTR pre-emergence efficacy (herbicidal activity) (Viola tricolor [9]; Dosage 320 g/ha): 100% | post-emergence efficacy ABUTH (Abutilon theophrasti [10]; 320 g/ha): 80% | post-emergence efficacy ALOMY (Alopecurus myosuroides [11]; 320 g/ha): 80% | post-emergence efficacy AMARE (Amaranthus retroflexus [12]; 80 g/ha): 80% | post-emergence efficacy AMARE (Amaranthus retroflexus [12]; 320 g/ha): 90% | post-emergence efficacy ECHCG (Echinochloa crus-galli [13]; 80 g/ha): 80% | post-emergence efficacy ECHCG (Echinochloa crus-galli [13]; 320 g/ha): 100% | post-emergence efficacy LOLMU (Lolium multiflorum [14]; 320 g/ha): 80% | post-emergence efficacy MATIN (Matricaria inodora [15]): 80% | post-emergence efficacy STEME (Stellaria media [16]; 320 g/ha): 90% | post-emergence efficacy VERPE (Veronica persica [17]; 80 g/ha): 80% | post-emergence efficacy VERPE (Veronica persica [17]; 320 g/ha): 90% | post-emergence efficacy VIOTR (Viola tricolor [18]; 80 g/ha): 80% | post-emergence efficacy VIOTR (Viola tricolor [18]; 320 g/ha): 90%

Cc1cc2c(o1)CCCC2Nc1ncc(C(F)(F)F)c(N)n1 (racemic) [compound 28]
ABUTH pre-emergence efficacy (herbicidal activity) (Abutilon theophrasti [1]; Dosage 320 g/ha): 80% | ALOMY pre-emergence efficacy (herbicidal activity) (Alopecurus myosuroides [19]; Dosage 320 g/ha): 90% | AMARE pre-emergence efficacy (herbicidal activity) (Amaranthus retroflexus [2]; Dosage 80 g/ha): 100% | AMARE pre-emergence efficacy (herbicidal activity) (Amaranthus retroflexus [2]; Dosage 320 g/ha): 100% | LOLMU pre-emergence efficacy (herbicidal activity) (Lolium multiflorum [20]): 100% | MATIN pre-emergence efficacy (herbicidal activity) (Matricaria inodora [4]; Dosage 80 g/ha): 90% | MATIN pre-emergence efficacy (herbicidal activity) (Matricaria inodora [4]; Dosage 320 g/ha): 100% | POLCO pre-emergence efficacy (herbicidal activity) (Polygonum convolvulus [5]; Dosage 320 g/ha): 100% | SETVI pre-emergence efficacy (herbicidal activity) (Setaria viridis [6]; Dosage 320 g/ha): 100% | STEME pre-emergence efficacy (herbicidal activity) (Stellaria media [7]; Dosage 80 g/ha): 100% | STEME pre-emergence efficacy (herbicidal activity) (Stellaria media [7]; Dosage 320 g/ha): 100% | VERPE pre-emergence efficacy (herbicidal activity) (Veronica persica [8]; Dosage 80 g/ha): 100% | VERPE pre-emergence efficacy (herbicidal activity) (Veronica persica [8]; Dosage 320 g/ha): 100% | VIOTR pre-emergence efficacy (herbicidal activity) (Viola tricolor [9]; Dosage 80 g/ha): 90% | VIOTR pre-emergence efficacy (herbicidal activity) (Viola tricolor [9]; Dosage 320 g/ha): 100% | post-emergence efficacy ALOMY (Alopecurus myosuroides [11]; 320 g/ha): 100% | post-emergence efficacy VIOTR (Viola tricolor [18]; 320 g/ha): 90%

Cc1cc2c(s1)C(Nc1ncc(C(F)(F)F)c(N)n1)CCC2 (racemic) [compound 55]
ABUTH pre-emergence efficacy (herbicidal activity) (Abutilon theophrasti [1]; Dosage 80 g/ha): 100% | ABUTH pre-emergence efficacy (herbicidal activity) (Abutilon theophrasti [1]; Dosage 320 g/ha): 100% | ALOMY pre-emergence efficacy (herbicidal activity) (Alopecurus myosuroides [19]; Dosage 80 g/ha): 90% | ALOMY pre-emergence efficacy (herbicidal activity) (Alopecurus myosuroides [19]; Dosage 320 g/ha): 100% | AMARE pre-emergence efficacy (herbicidal activity) (Amaranthus retroflexus [2]; Dosage 80 g/ha): 100% | AMARE pre-emergence efficacy (herbicidal activity) (Amaranthus retroflexus [2]; Dosage 320 g/ha): 100% | AVEFA pre-emergence efficacy (herbicidal activity) (Avena fatua): 100% | ECHCG pre-emergence efficacy (herbicidal activity) (Echinochloa crus-galli [3]; Dosage 80 g/ha): 100% | ECHCG pre-emergence efficacy (herbicidal activity) (Echinochloa crus-galli [3]; Dosage 320 g/ha): 100% | LOLMU pre-emergence efficacy (herbicidal activity) (Lolium multiflorum [20]): 100% | MATIN pre-emergence efficacy (herbicidal activity) (Matricaria inodora [4]; Dosage 80 g/ha): 100% | MATIN pre-emergence efficacy (herbicidal activity) (Matricaria inodora [4]; Dosage 320 g/ha): 100% | POLCO pre-emergence efficacy (herbicidal activity) (Polygonum convolvulus [5]; Dosage 320 g/ha): 90% | SETVI pre-emergence efficacy (herbicidal activity) (Setaria viridis [6]; Dosage 80 g/ha): 100% | SETVI pre-emergence efficacy (herbicidal activity) (Setaria viridis [6]; Dosage 320 g/ha): 100% | STEME pre-emergence efficacy (herbicidal activity) (Stellaria media [7]; Dosage 80 g/ha): 100% | STEME pre-emergence efficacy (herbicidal activity) (Stellaria media [7]; Dosage 320 g/ha): 100% | VERPE pre-emergence efficacy (herbicidal activity) (Veronica persica [8]; Dosage 80 g/ha): 100% | VERPE pre-emergence efficacy (herbicidal activity) (Veronica persica [8]; Dosage 320 g/ha): 100% | VIOTR pre-emergence efficacy (herbicidal activity) (Viola tricolor [9]; Dosage 80 g/ha): 100% | VIOTR pre-emergence efficacy (herbicidal activity) (Viola tricolor [9]; Dosage 320 g/ha): 100% | post-emergence efficacy ABUTH (Abutilon theophrasti [10]; 80 g/ha): 90% | post-emergence efficacy ABUTH (Abutilon theophrasti [10]; 320 g/ha): 90% | post-emergence efficacy ALOMY (Alopecurus myosuroides [11]; 80 g/ha): 90% | post-emergence efficacy ALOMY (Alopecurus myosuroides [11]; 320 g/ha): 90% | post-emergence efficacy AMARE (Amaranthus retroflexus [12]; 80 g/ha): 90% | post-emergence efficacy AMARE (Amaranthus retroflexus [12]; 320 g/ha): 100% | post-emergence efficacy ECHCG (Echinochloa crus-galli [13]; 80 g/ha): 100% | post-emergence efficacy ECHCG (Echinochloa crus-galli [13]; 320 g/ha): 100% | post-emergence efficacy PHBPU (Ipomoea purpurea; 80 g/ha): 100% | post-emergence efficacy PHBPU (Ipomoea purpurea; 320 g/ha): 100% | post-emergence efficacy LOLMU (Lolium multiflorum [14]; 80 g/ha): 80% | post-emergence efficacy LOLMU (Lolium multiflorum [14]; 320 g/ha): 90% | post-emergence efficacy POLCO (Polygonum convolvulus [21]; 80 g/ha): 90% | post-emergence efficacy POLCO (Polygonum convolvulus [21]; 320 g/ha): 90% | post-emergence efficacy SETVI (Setaria viridis [22]; 80 g/ha): 90% | post-emergence efficacy SETVI (Setaria viridis [22]; 320 g/ha): 90% | post-emergence efficacy STEME (Stellaria media [16]; 80 g/ha): 100% | post-emergence efficacy STEME (Stellaria media [16]; 320 g/ha): 100% | post-emergence efficacy VERPE (Veronica persica [17]; 80 g/ha): 90% | post-emergence efficacy VERPE (Veronica persica [17]; 320 g/ha): 100% | post-emergence efficacy VIOTR (Viola tricolor [18]; 80 g/ha): 90% | post-emergence efficacy VIOTR (Viola tricolor [18]; 320 g/ha): 100% | logP (HCOOH) (logP (HCOOH)): oily; logP (HCOOH): 2.46; 1H NMR (CDCl3, 400 MHZ, δ in ppm): 1.85-2.00 (m, 3H,
